In PubChem BioAssay (NCI):
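Each compound was tested at five concentrations against cells in 96-well plates for 48 hours. GI50 = concentration required for 50% inhibition of growth. TGI: concentration producing complete growth inhibition.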

Key:
Assay in all cases: DTP human tumour cell line panel, 48 h
[1] = tested on: HCT-116 colon
[2] = tested on: RXF 393 renal
[3] = tested on: TK-10 renal
[4] = tested on: OVCAR-3 ovarian
[5] = tested on: SNB-75 CNS
[6] = tested on: A549 NSCLC
[7] = tested on: HCT-15 colon
[8] = tested on: MALME-3M melanoma
[9] = tested on: NCI/ADR-RES ovarian
[10] = tested on: OVCAR-4 ovarian

Row | Compound | TGI [1] | TGI [2] | TGI [3] | TGI [4] | TGI [5] | TGI [6] | TGI [7] | TGI [8] | TGI [9] | TGI [10] | GI50 [1] | GI50 [2] | GI50 [3] | GI50 [4] | GI50 [5] | GI50 [6] | GI50 [7] | GI50 [8] | GI50 [9] | GI50 [10]
1 | CCCCCCCCCCCCCCCC(=O)OCC1OC(OC)C(NC(=O)N(CCCl)N=O)C(O)C1O (centres undefined) | 26.8 µM | 32.7 µM | 63.2 µM | 48.6 µM | 38.5 µM | 35.2 µM | 35.4 µM | 59 µM | 58.9 µM | 53.4 µM |  |  |  |  |  |  |  |  |  | 
2 | O=C(CCN1CCCC1)Nc1ccc2c(NCCc3ccccc3)c3ccccc3nc2c1 | 1.38 µM | 1.75 µM | 2.96 µM | 1.73 µM | 1.7 µM | 1.7 µM | 4.85 µM | 1.45 µM | > 62.9 µM | 1.19 µM | 0.354 µM | 0.51 µM | 1.06 µM | 0.454 µM | 0.453 µM | 0.334 µM | 1.73 µM | 0.384 µM | 12 µM | 0.326 µM
3 | CN1CCN(c2ccc3nc(-c4[nH]ncc4Nc4ncnc5c4OCCCN5)[nH]c3c2)CC1 | 1.09 µM |  | 0.0576 µM | 0.0422 µM | 0.0177 µM | 0.116 µM | 0.63 µM | 0.0633 µM | 2.89 µM | 0.104 µM | < 0.01 µM | < 0.01 µM | 0.0166 µM | < 0.01 µM | < 0.01 µM | < 0.01 µM | 0.0259 µM | 0.0185 µM | 0.28 µM | 0.0162 µM
4 | O=C(Nc1ccc(Oc2ccc(NC(=O)Nc3ccc([N+](=O)[O-])cc3)cc2)cc1)Nc1ccc([N+](=O)[O-])cc1 | 9.19 µM | > 24.4 µM | > 26.7 µM | > 30.3 µM | > 100 µM | > 78.8 µM | 13.7 µM | 6.81 µM | > 91.3 µM | > 100 µM | 1.17 µM | 2.94 µM | 2.11 µM | 2.12 µM | 2.78 µM | 2.61 µM | 1.91 µM | 1.93 µM | 3.88 µM | 2.07 µM
5 | Oc1ccc(Oc2cnc3cc(Cl)ccc3n2)cc1 | > 100 µM | > 100 µM | > 100 µM | 38.4 µM | > 100 µM | > 100 µM | > 100 µM | > 100 µM | > 100 µM | > 100 µM | 37.1 µM | 46.6 µM | > 100 µM | 15.8 µM | 26 µM | 61.8 µM | 33.7 µM | 34.7 µM | 35.7 µM | 28.2 µM
6 | O=C(Cc1ccc(Nc2ccnc(C(F)(F)F)c2)cc1)Nc1cc(Cl)ccc1O | 26.5 µM | 52.4 µM | 56 µM | 13.6 µM | 37.5 µM | > 100 µM | 61 µM | 32.7 µM | 24.5 µM | 84.2 µM | 5.12 µM | 25 µM | 17.7 µM | 3.37 µM | 11.9 µM | 15.3 µM | 5.66 µM | 3.83 µM | 3.46 µM | 9.48 µM
7 | Fc1ccc([C@@H]2CCNC[C@H]2COc2ccc3c(c2)OCO3)cc1 | 21.8 µM | 20.1 µM | 23.8 µM | 22.8 µM | 7.61 µM | 29 µM | 27 µM | 6.12 µM | 30 µM | 23.1 µM | 6.07 µM | 5.28 µM | 11.3 µM | 10.5 µM | 1.32 µM | 14.6 µM | 11 µM | 2.68 µM | 14 µM | 10.6 µM
8 | COc1cc2cnc(-c3ccccc3)cc2cc1OC | > 100 µM | > 100 µM | 67.2 µM | 85.6 µM | > 100 µM | 85.3 µM | 46.5 µM | 60.4 µM | 73.6 µM | 82 µM |  |  |  |  |  |  |  |  |  | 
9 | CCOC(=O)c1ccc(N(C=O)CCC(=O)CCl)cc1 | 1.73 µM | 4.49 µM | 7.03 µM | 1.35 µM | 13.6 µM | 12.7 µM | 2.58 µM | 3.48 µM | 19.4 µM | 3.61 µM | 0.0342 µM | 0.26 µM | 1.78 µM | 0.399 µM | 0.997 µM | 1.37 µM | 0.0487 µM | 1.49 µM | 0.393 µM | 0.079 µM
10 | O=C1NC(=O)[C@@H](c2c[nH]c3ccccc23)[C@@H]1c1c[nH]c2ccccc12 | > 25 µM | > 25 µM | > 25 µM | > 25 µM | > 25 µM | > 25 µM | > 25 µM | > 25 µM | > 25 µM | > 25 µM | > 25 µM | > 25 µM | > 25 µM | > 25 µM | > 25 µM | > 25 µM | > 25 µM | > 21.8 µM | > 25 µM | > 25 µM
11 | OCCn1cc(-c2cnc3nnn(Cc4ccc5ncccc5c4)c3n2)cn1 | > 100 µM | > 100 µM | > 100 µM | > 100 µM | > 100 µM | > 100 µM | > 100 µM | > 100 µM | > 100 µM | > 100 µM | > 100 µM | > 100 µM | > 100 µM | > 100 µM | > 100 µM | > 100 µM | > 100 µM | > 100 µM | > 100 µM | > 100 µM
12 | COc1ccc(/C=N\NC(=O)c2ccc3nc(-c4ccc(Cl)cc4)[nH]c3c2)cc1 | 5.12 µM | 3.8 µM | 6.59 µM | 5.14 µM | 4.58 µM | 5.65 µM | 12.8 µM | 3.63 µM | > 100 µM | 3.36 µM | 2.14 µM | 1.86 µM | 2.95 µM | 2.28 µM | 1.53 µM | 2.46 µM | 3.24 µM | 1.67 µM | 7.81 µM | 1.79 µM
